Measured values taken from patent publication US20150141485A1, “PROGNOSIS AND TREATMENT OF LUNG CANCER USING miRNA-135b” (NATIONAL CHENG KUNG UNIVERSITY, priority 2013, published 2015).
Oligonucleotides are written 5' to 3', each unit as a sugar letter and its base; * is a phosphorothioate linkage, no mark a phosphodiester; rarer units and linkages stand in square brackets, end groups in braces. Plain capitals give the bases only. {Chol} = cholesterol; m = 2'-O-methyl

Columns and labels:
Hop-62 cells = test: Transwell invasion assay; format: cell-based; settings: Hop-62 cells transfected 48 hours, vs scramble (NC)
Description: CL1-5-F4 and Hop-62 cells were transfected with scramble (NC) of miR-135b-specific antagomir (Antago-135b) for 48 hours and the subjected to migration assays (FIG. 2d) and invasion assays (FIG. 2e) as described above. *P<0.05;**P<0.005 by Student's t-test.
Transwell chambers ([…], BD Falcon, Franklin Lakes, N.J.) were coated with the appropriate amount of Matrigel (BD Biosciences, San Jose, Calif.). Next, 2.5×10^4 cells were suspended in NuSerum-containing media (Gibco BRL, Grand Island N.Y., USA), seeded in the chamber and cultured, Cells that invaded the chamber from top to bottom were fixed with methanol and stained with a solution of propidium iodine (Sigma-Aldrich, St. Louis, Mo.). The propidiumiodine-positive signal was quantified using Analytical Imaging Station software package. Each sample was assayed in triplicate.

CL1-5-F4 cells [1] = test: Western blot of Hippo pathway proteins; format: cell-based, human; settings: 72 hours
Description: Western bolt analysis of the Hippo pathway proteins in CL1-5-F4 and CL141 cells incubated with Scramble (NC) of Antago-135b for 72 hours. Quantitative RT-PCR was used to assay miR-135b knockdown activity.

LZTS1 3′-UTR = test: Luciferase reporter assay, LZTS1 3'-UTR; format: cell-based; settings: CL1-0 cells co-transfected with miR-135b, vs Scramble
Description: CL1-0 cells were co-transfected with miR-135b, wild-type LZTS1 3′-UTR along with Scramble or miR-135-specific antagomir (Antago-135b). Luciferase activity was measured and is presented as described in FIG. 5a. Mean±s.d. is shown, *P<0.05; **P<0.005 by Student's t-test.
One day before transfection, CL1-0 cells were seeded at a concentration of 2.5×10^4 per well. Next, the pClneo vector or miR-135b plasmid was co-transfected with the pGL3-target gene-3′UTR. The Renilla lunciferase plasmid (phRL-TK, Promega, Madison, Wis.) was co-transfected as transfection control. Cells were lysed 36 hours after transfection, and luciferase activity was measured using a Dual-Luciferase system (Promega, Madison, Wis.) according to the manufacture's protocol.

CL1-5-F4 cells [2] = test: Late-stage metastasis model, intravenous injection of tumor cells; format: in vivo, mice; settings: 3 months after i.v. cell injection, tail vein treatments, P=0.018
Description: CL1-5 cells with scramble antagomir (NC) or miR-135 antagomir (Antago-135b) were intravenously injected to assess the effect of antagomir on late-stage metastasis (n=9). Representative average of visible metastatic lung nodules and H&E staining (right). Data are expressed as the mean±s.e.m. *P<0.05 by Student's t-test.
Animals were housed in a specific-pathgen-free environment in the animal facility of the Institute of Biomedical Sciences, Academia Sinica. All experimental procedures were in compliance with the Academia Sinica IACUC and Council of Agriculture Guidebook for the Care and Use of Laboratory Animals. For intravenous injections of the tumor cells, 1×10^6 cells were suspended in 0.1 mL of phosphate-buffered saline (PBS) and injected into lateral tail vein of SCID mice (10 mice per group). […] For the subcutaneous tumor assay, 1×10^6 CL1-0 cells or 2×10^5 H441 cells were subcutaneously injected in 0.1 mL of PBS into male nude mice (n=8 per group) and allowed to grow for 35 days to reach a volume of 50-200 mm^3 Control antagomir (Scramble) or anti-miR-135b antagomir (antago-135) was intravenously injected at a concentration of 10 μM in 0.1 mL of PBS 4 days after the cells were implanted. […]
The impact of the antagomir during the late stages in metastasis was determined, such as extravasation and colonization. […]

Substance: 5′mU(*)mC(*)mAmCmAmUmAmG-mGmAmAmUmGmAmAmAmAmGmCmC(*)mA(*)mU(*)mA(*)(3′-Ch1)3′ (SEQ ID NO:8) (mU*mC*mAmCmAmUmAmGmGmAmAmUmGmAmAmAmAmGmCmC*mA*mU*mA*{Chol}) [miR-135b antagomir]
- invasive ability (Hop-62 cells): inhibited these changes
- LATS2, β-TrCP and NDR2 expressions (CL1-5-F4 cells [1]): induced
- TAZ protein expression (CL1-5-F4 cells [1]): reduced
- suppressive effects of miR-135b on LZTS1 3′-UTR-carrying luciferase (LZTS1 3′-UTR): significantly reduced
- metastatic lung nodules vs control group (CL1-5-F4 cells [2]): eight-fold fewer
